{"source": "patent US10383873B2", "about": "“Method and kits for identifying of CDK9 inhibitors for the treatment of cancer” (Memorial Sloan-Kettering Cancer Center, priority 2014, dated 2019)", "key": {"human HCC cell lines [1]": {"tested_on": "human HCC cell lines", "assay": "Cell cycle analysis (BrdU/7-AAD staining) after 48 hours of treatment", "format": "cell-based", "details": "PHA-767491 treatment", "quoted_text": "(FIG. 3E) Representative flow cytometry plots showing cell cycle analysis (BrdU+7-AAD+ double staining) of cells after 48 hours of PHA-767491 treatment."}, "[2]": {"tested_on": "non-transformed cell lines", "assay": "Proliferation assay in non-transformed cell lines", "format": "cell-based", "details": "two non-transformed cell lines, compared with cancer cell lines", "quoted_text": "Dead cells were excluded using propidium iodide (PI) staining to score cells with sub-2N DNA content. Measurements of cell concentration were performed on a Guava Easycyte (Millipore), gating only viable cells (FSC/SSC/PI-). Proliferation rates were calculated by dividing cell concentration at 72 h and cell concentration at 0 h, divided by 72. Relative proliferation rates were calculated by normalizing to the rate of vehicle-treated cells. Population doublings were calculated by calculating log 2 (cells at end point/cells at initial point) divided by time in days."}, "[3]": {"tested_on": "human and murine cell lines", "assay": "Comparison of inhibitor IC50 with anti-proliferative effects of CDK9 shRNAs", "format": "cell-based", "details": "IC50 compared with competitive proliferation assays", "excerpt": "(FIG. 3A) Scatter plot illustrating the correlation between anti-proliferative effects of CDK9 shRNAs and the IC50 of PHA-767491 in six human cell lines. The correlation and p values of three additional CDK9 inhibitors and one DNA replication inhibitor (aphidicolin) are also shown in the right panel. The survival is defined as the average of the survival ratio of two shRNAs in competitive proliferation assay. (FIG. 3B) Proliferation rates of PHA-767491-treated human cells, calculated by measuring the change in viable cell number after 72 h in culture and fitting data to an exponential growth curve. Results were normalized to the proliferation rate of vehicle (H2O) treated cells, set to 1. Values are mean+/−SD of three independent replicates. (FIG. 3C) Summary of PHA-767491 IC50 values of human cell lines in FIG. 3A. […]\nCompetitive proliferation assays using shRNAs in TRMPV-Neo vector (with miR-30 or miR-E backbone) were performed as described previously (Zuber J, et al. Nature (2011) 478: 524-528). […] Proliferation rates were calculated by dividing cell concentration at 72 h and cell concentration at 0 h, divided by 72. Relative proliferation rates were calculated by normalizing to the rate of vehicle-treated cells. Population doublings were calculated by calculating log 2 (cells at end point/cells at initial point) divided by time in days. […]"}, "CDK9": {"target": "CDK9 (Homo sapiens, UniProt P50750)", "sequence (P50750 whole entry, species assumed)": "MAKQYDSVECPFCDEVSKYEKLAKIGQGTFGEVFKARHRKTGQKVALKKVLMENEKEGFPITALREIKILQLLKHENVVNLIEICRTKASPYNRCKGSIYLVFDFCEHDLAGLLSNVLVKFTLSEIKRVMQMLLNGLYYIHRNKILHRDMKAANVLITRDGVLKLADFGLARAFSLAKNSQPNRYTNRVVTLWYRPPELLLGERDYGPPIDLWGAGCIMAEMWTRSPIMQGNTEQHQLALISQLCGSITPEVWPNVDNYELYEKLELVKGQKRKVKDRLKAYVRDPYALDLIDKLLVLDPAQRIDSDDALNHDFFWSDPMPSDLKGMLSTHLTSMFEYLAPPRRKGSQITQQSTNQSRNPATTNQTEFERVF", "sequence (O60563 whole entry partner, species assumed)": "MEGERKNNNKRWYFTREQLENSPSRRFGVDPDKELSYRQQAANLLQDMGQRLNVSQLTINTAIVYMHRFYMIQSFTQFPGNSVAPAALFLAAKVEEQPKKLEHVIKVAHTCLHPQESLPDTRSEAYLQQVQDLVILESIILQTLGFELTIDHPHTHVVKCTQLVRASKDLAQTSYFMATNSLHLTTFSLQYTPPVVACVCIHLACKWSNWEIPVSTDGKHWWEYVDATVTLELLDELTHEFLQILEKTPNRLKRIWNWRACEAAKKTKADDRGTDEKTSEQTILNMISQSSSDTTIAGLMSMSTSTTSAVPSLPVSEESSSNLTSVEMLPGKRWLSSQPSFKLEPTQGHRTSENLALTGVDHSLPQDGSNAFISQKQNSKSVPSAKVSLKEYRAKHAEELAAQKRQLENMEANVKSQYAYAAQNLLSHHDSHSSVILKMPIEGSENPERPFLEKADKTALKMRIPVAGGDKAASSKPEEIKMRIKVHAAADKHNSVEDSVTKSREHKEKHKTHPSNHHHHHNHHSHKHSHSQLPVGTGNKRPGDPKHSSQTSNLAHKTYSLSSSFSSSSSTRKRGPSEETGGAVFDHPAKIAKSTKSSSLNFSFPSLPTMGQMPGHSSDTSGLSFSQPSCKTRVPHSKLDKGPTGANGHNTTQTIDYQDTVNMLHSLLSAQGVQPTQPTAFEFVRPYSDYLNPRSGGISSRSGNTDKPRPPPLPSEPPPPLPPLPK", "details": "versus other available inhibitors"}, "human HCC cell lines [4]": {"tested_on": "human HCC cell lines", "details": "previous findings; cited from earlier work"}, "Alexander cells": {"tested_on": "Alexander cells", "assay": "Orthotopic Alexander HCC xenograft, bioluminescent imaging and Ki67", "format": "in vivo, mice", "details": "low MYC expressing Alexander; same treatment", "protocol": "(§1) All mouse experiments were approved by the Memorial Sloan-Kettering Cancer Center (MSKCC) Animal Care and Use Committee (protocol no. 11-06-011). Mice were maintained under specific pathogen-free conditions, and food and water were provided ad libitum. For conditional RNAi experiments in vivo, Tet-on murine HCC MP1 cells were transduced with luciferase-hygro and TRMPV-Neo-miR-E shRNA constructs. […] For whole-body bioluminescent imaging, mice were intraperitoneally injected with 50 mg/kg D-Luciferin (Goldbio), and after 10 min, analysed using an IVIS Spectrum system (Caliper LifeSciences). Quantification was performed using Living Image software (Caliper LifeSciences) with standardized round regions of interests covering the mouse trunk and extremities. […]\n(§2) Liver tissues and cell pellets were lysed in Laemmli buffer or protein lysis buffer (200 mM NaCl, 0.2% NP40, 50 mM Tris at pH 7.5, 1% Tween20, protease and phosphatases inhibitors) using a tissue homogenizer. […] The abundance of β-actin was monitored to ensure equal loading. Images were analyzed using the AlphaView software (ProteinSimple). […]"}, "HepG2 cells": {"tested_on": "HepG2 cells", "assay": "Orthotopic HepG2 HCC xenograft, bioluminescent imaging and Ki67", "format": "in vivo, mice", "details": "high MYC expressing HepG2; 50 mg/kg twice a day", "protocol": "as §1, §2"}, "SNU-475 cells": {"tested_on": "SNU-475 cells", "assay": "Proliferation assay in SNU-475 cells with enforced MYC expression", "format": "cell-based, human", "details": "MYC levels equivalent to HepG2"}, "Ser2 of RNA pol II": {"tested_on": "Ser2 of RNA pol II", "assay": "Immunoblot of Pol II Ser2 phosphorylation in tumors", "format": "in vivo, mice", "description": "Mice were maintained under specific pathogen-free conditions, and food and water were provided ad libitum. […] One million murine or human HCC cells were ortothopically transplantated into female nude recipient mice (NCR nu/nu, purchased from Charles River laboratories and Harlan Laboratories), as described previously (Saborowski et al. 2013 Proc Natl Acad Sci USA. 2013 Nov. 26; 110(48):19513-8. doi: 10.1073/pnas.1311707110.). […] For PHA-767491 treatment trials, PHA-767491 was solved in ultrapure distilled water, filtered by 0.2 M filters, and diluted to a final concentration of 5 mg/ml. Mice were orally given twice daily PHA-767491 (50 mg/kg) or a similar volume of vehicle (water). The sick animals were sacrificed and liver tumors were used for further analysis. Liver tumors were excised, formalin-fixed and paraffin-embedded, frozen, or embedded in OCT.\nLiver tissues and cell pellets were lysed in Laemmli buffer or protein lysis buffer (200 mM NaCl, 0.2% NP40, 50 mM Tris at pH 7.5, 1% Tween20, protease and phosphatases inhibitors) using a tissue homogenizer. Equal amounts of protein were separated on 12% SDS-polyacrylamide gels and transferred to PVDF membranes. […] Images were analyzed using the AlphaView software (ProteinSimple). Detection in immunoblots was performed using antibodies for CDK9 (Santa Cruz Biotechnology), MCM6 (Santa Cruz Biotechnology), PSMB2 (Santa Cruz Biotechnology), β-Actin (AC-15, Sigma), p53 (Leica Biosystems), MYC (Abcam), CCNT1 (Santa Cruz Biotechnology), phopho-Ser2 RNA Pol II (Cell Signaling), and RNA Pol II (Santa Cruz Biotechnology)."}, "[5]": {"tested_on": "MYC-overexpressing Alexander cells", "assay": "Proliferation assay in Alexander cells with enforced MYC expression", "format": "cell-based, human", "details": "ectopic MYC expression versus empty vector"}}}
{"compound": "O=C1NCCc2[nH]c(-c3ccncc3)cc21", "note": "[PHA-767491]", "values": [{"measurement": "cell cycle effect", "setting": "human HCC cell lines [1]", "value": "triggered cell-cycle arrest"}, {"measurement": "sensitivity to treatment", "setting": "[2]", "value": "consistently less sensitive"}, {"measurement": "similarity of activity spectrum to CDK9 shRNAs", "setting": "[3]", "value": "most closely recapitulated shRNA-mediated CDK9 inhibition"}, {"measurement": "selectivity for CDK9", "setting": "CDK9", "value": "more selective for CDK9 than other available inhibitors"}, {"measurement": "p53 dependence of proliferation inhibition", "setting": "human HCC cell lines [4]", "value": "inhibits cancer cell proliferation through p53-independent mechanisms"}, {"measurement": "effect on tumor-cell proliferation and tumor growth", "setting": "Alexander cells", "value": "little if any effect"}, {"measurement": "tumor growth", "setting": "HepG2 cells", "value": "substantial inhibition of tumor growth and some tumor regressions"}, {"measurement": "tumor-cell proliferation", "setting": "HepG2 cells", "value": "decreased tumor-cell proliferation"}, {"measurement": "sensitivity compared with HepG2 cells", "setting": "SNU-475 cells", "value": "produced a similar sensitivity"}, {"measurement": "Pol II Ser2 phosphorylation in tumors", "setting": "Ser2 of RNA pol II; human HCC xenografts, 50 mg/kg twice a day, 50 mg/kg", "value": "decrease in the levels of phosphorylation of Ser2 of RNA pol II"}, {"measurement": "Pol II Ser2 phosphorylation in Alexander tumors", "setting": "Ser2 of RNA pol II; low MYC expressing Alexander xenografts", "value": "detectable decrease in Pol II Ser2 phosphorylation"}, {"measurement": "total RNA pol II levels in tumors", "setting": "Ser2 of RNA pol II; two representative tumors", "value": "mild changes in total RNA pol II levels"}, {"measurement": "sensitivity to CDK9 inhibition", "setting": "[5]", "value": "became more sensitive"}]}
{"compound": "C[C@@]1(CO)[C@H](O)CC[C@@]2(C)[C@H]1CC[C@H]1C[C@@H]3C[C@@]12CC[C@]3(O)CO", "note": "[aphidicolin]", "values": [{"measurement": "similarity of activity spectrum to CDK9 shRNAs", "setting": "[3]", "value": "did not mimic the effects of CDK9 shRNAs"}]}
